{
  "source": "a melting point compilation (Tetko et al.; mined from patent text by program, amines drawn as free bases though some values may be those of a salt)",
  "data": [
    {"units": {"melting point": "°C"}, "values": [
      {"compound": "O=c1[nH]c(=S)[nH]cc1Oc1cccnc1", "melting point": "227 to 230"},
      {"compound": "CC[C@@]12C[C@H](N)[C@](O)(c3ccccc3)C[C@H]1CCc1cc(O)ccc12", "melting point": "209 to 210"},
      {"compound": "CC1(O)CSC(=S)N1c1ccccn1", "note": "(stereo unspecified)", "melting point": 120},
      {"compound": "COCc1cccc(C(=O)c2nc(OC)cc(OC)n2)c1N", "melting point": "100 to 101"},
      {"compound": "O=c1ncc(Cl)cn1COCc1cccc(C(F)(F)F)c1", "melting point": 95},
      {"compound": "CCC(=O)S(=O)(=O)c1ccc(C=C(C)c2ccc3c(c2)C(C)(C)CCC3(C)C)cc1", "melting point": "140 to 141"},
      {"compound": "CC(C)(C)c1ccc(C[C@@H](NC(=O)c2cccc3c(F)cccc23)[C@@H](O)c2ccc(F)cc2)cc1", "note": "(racemic)", "melting point": "148 to 149"},
      {"compound": "COc1ccc(-c2ccc3nn(-c4cc(C(C)(C)CC(C)(C)C)cc(C(C)(C)c5ccccc5)c4O)nc3c2)cc1", "melting point": "129 to 131"},
      {"compound": "O=C(Nc1cc(Cl)c([N+](=O)[O-])cc1O)c1ccccc1", "melting point": "< 250"},
      {"compound": "Cc1nn(C)c2nc(N(CC(C)C)CC3CC3)c(CN(Cc3cc(C(F)(F)F)cc(C(F)(F)F)c3)c3nnn(C)n3)cc12", "melting point": "99 to 101"},
      {"compound": "COCCc1nc2c(N)nc3ccccc3c2n1CCCNS(=O)(=O)c1ccc(C)cc1", "melting point": "189 to 191"},
      {"compound": "CC(=O)N1c2cscc2C(=O)N(C)c2ccccc21", "melting point": "197 to 199"},
      {"compound": "Fc1c(Br)ccc2c1OC(c1ccccc1)(c1ccccc1)O2", "melting point": "61.5 to 63"},
      {"compound": "COc1cccc(CNC(=O)c2[nH]c3ccc(Cl)cc3c2S(=O)(=O)c2nccs2)c1", "melting point": "205 to 209"},
      {"compound": "Cc1cc(C(=O)N2Cc3cccn3Cc3ccccc32)ccc1-c1ccncc1", "melting point": "208 to 210"},
      {"compound": "CC(C)(C)[Si](OCC1CSC2=C(O1)c1ccccc1C(=O)C2=O)(c1ccccc1)c1ccccc1", "note": "(stereo unspecified)", "melting point": "205 to 210"},
      {"compound": "Cc1ccc(-c2nc3ccccc3[nH]2)cn1", "melting point": 266},
      {"compound": "O=c1cc(C=Cc2ccccc2)oc2ccc(O)cc12", "melting point": 230},
      {"compound": "COc1ccc(S(=O)(=O)N(CCN2CCC(C(=O)c3ccc(F)cc3)CC2)c2cccc(OC)c2)cc1", "melting point": "129 to 132"},
      {"compound": "CC(=O)OC1=CC2=CCC3C4CC(C)C(O)(CC(=O)OC(=O)C(C)(C)C)C4(C)CC4OC43C2(C)C=C1", "note": "(stereo unspecified)", "melting point": "108 to 120"},
      {"compound": "O[C@@H](CNCCOc1ccc2oc(-c3ccon3)cc2c1)COc1ccccc1", "melting point": "107 to 110"},
      {"compound": "Cc1ccc(-c2nc(C)c(C)c(Cl)n2)cc1", "melting point": 165},
      {"compound": "C#CCNC(=O)C(C)(COc1ccc(OCC)cc1)NS(=O)(=O)Cc1ccccc1", "note": "(stereo unspecified)", "melting point": "155 to 156"},
      {"compound": "CCOC(=O)C1CCNCC1c1nc2cc(-c3ccc(OC)cc3)nnc2c2ccccc12", "note": "(stereo unspecified)", "melting point": "160 to 161"},
      {"compound": "Cc1oc(-c2ccccc2)nc1CCOc1ccc(/C=C/C=C/CO)cc1", "melting point": "132 to 133"},
      {"compound": "O=C(NCCO)c1ccc([N+](=O)[O-])cc1", "melting point": "134 to 135"},
      {"compound": "COC1CN(C(=O)c2cnn(C)c2C(=O)Nc2ccn3nc(-c4ccccc4)nc3c2)C1", "melting point": "269 to 270"},
      {"compound": "C[C@H](O)C(=O)Nc1c(C(=O)c2cc(CO)co2)[nH]c2cc(Cl)ccc12", "melting point": "213 to 214"},
      {"compound": "CS(=O)(=O)NCCn1c(CO)nc2c(N)nc3cccnc3c21", "melting point": "239 to 242"},
      {"compound": "O=C(O)CP(=O)(O)CCc1ccccc1", "melting point": "120 to 121"},
      {"compound": "CC(=O)Nc1nc(NC(C)=O)nc(NC2CC2)n1", "melting point": "267 to 269"},
      {"compound": "CCCCCCCCC1(COc2ccc(N)cc2)CCc2c(C)c(OC(C)=O)c(C)c(C)c2O1", "note": "(stereo unspecified)", "melting point": "112 to 114"},
      {"compound": "N#CNC(=Nc1ccncc1)NCCCCCOc1ccccc1", "melting point": "188 to 189"},
      {"compound": "O=C(NCc1cc[nH]c(=O)c1)c1nc2ccc(F)c(OCc3ccc(F)cc3)c2c(=O)[nH]1", "melting point": "248 to 250"},
      {"compound": "O=C(O)c1cn(C2CC2)c2cc(N3CCC(c4cccnc4)C3)c(F)cc2c1=O", "note": "(stereo unspecified)", "melting point": "233 to 236"},
      {"compound": "O=C1CC2CS(=O)c3ccccc3C2=NN1c1ccc(Cl)cc1", "note": "(stereo unspecified)", "melting point": "190 to 192"},
      {"compound": "CC1(CO)Cc2nnc(-c3ccc(-c4ccccc4)cc3Cl)n2CCS1", "note": "(stereo unspecified)", "melting point": "166 to 169"},
      {"compound": "C#CC1(c2ccc(OC)c(OC3CCCC3)c2)CC(=O)C1", "melting point": "58 to 59"},
      {"compound": "COc1ccnc(C(=O)N[C@H]2COC(=O)[C@H](CC(=O)OC(C)(C)C)[C@@H](OC(=O)C(C)C)[C@H](C)OC2=O)c1O", "melting point": "192 to 194"},
      {"compound": "CCCCCCCCCCn1c(C)cc(C)c(C#N)c1=O", "melting point": "82 to 83"},
      {"compound": "N#Cc1ccc(-c2ccc(C#N)c(N)c2)cc1N", "melting point": 243},
      {"compound": "O=c1[nH]c2ccc(O)cc2c(=O)n1CCN1CCC(c2c[nH]c3ccccc23)CC1", "melting point": 258},
      {"compound": "CCOc1cccc(NC(=O)NS(=O)(=O)c2ccc(C)cc2)n1", "melting point": "197 to 199"},
      {"compound": "COc1ccc(-c2cncc(OC3SCC(OC(C)=O)C(OC(C)=O)C3OC(C)=O)c2)c(Cl)c1", "note": "(stereo unspecified)", "melting point": 126},
      {"compound": "O=C(O)Cn1c(=O)sc2ccc(O)cc21", "melting point": "217 to 221"},
      {"compound": "O=C(C(c1ccccc1)n1cnc2[nH]ncc2c1=S)N1CCN(c2ccccn2)CC1", "note": "(stereo unspecified)", "melting point": "242 to 246"},
      {"compound": "COc1cc(OC)c2c(=O)[nH]c(-c3ccc4[nH]c(CCO)cc4c3)nc2c1", "melting point": "237 to 238"},
      {"compound": "CCCCc1nc2cscc2[nH]1", "melting point": 118},
      {"compound": "Cn1c(=O)n(C(N)=O)c2ccccc21", "melting point": "> 250"},
      {"compound": "COc1ccc(CCCOCCCCCNCC(O)c2cc(Cl)c(N)c(Cl)c2)cc1", "note": "(stereo unspecified)", "melting point": "63 to 64"},
      {"compound": "CCCn1ccc(-c2ccc(C(=O)N3Cc4cccn4Cc4ccccc43)cc2)n1", "melting point": "159 to 161"},
      {"compound": "CN(c1ccc(C(=O)O)cc1)c1cc2c3c(c1)CCCC3CCC2", "melting point": "288 to 289"},
      {"compound": "N#Cc1oc2cc(Cl)ccc2c1O", "melting point": 205},
      {"compound": "CCOC(=O)COc1ccc(NS(C)(=O)=O)cc1C", "melting point": "83 to 84"},
      {"compound": "CSC(=S)C1(c2ccncc2)CCCS1", "note": "(stereo unspecified)", "melting point": 64},
      {"compound": "CC(C)CC(=O)c1cn(C)cc(-c2cccc(C(F)(F)F)c2)c1=O", "melting point": "110 to 112"},
      {"compound": "COc1ccccc1CN[C@H]1CCCN(CC(=O)O)[C@H]1c1ccccc1", "note": "(relative stereo)", "melting point": 58},
      {"compound": "CCOc1cc(CN2CCN(c3ccc(C(=O)NC)cc3C)CC2)cc2c1OC(C)C(=O)N2", "note": "(stereo unspecified)", "melting point": "173 to 180"},
      {"compound": "O=c1cc(-c2cccnc2)oc2ccccc12", "melting point": "123 to 124"},
      {"compound": "COc1ccc2oc3ccc(I)cc3c2c1C(=O)Nc1ccncc1", "melting point": "255 to 257"},
      {"compound": "O=C(NCCc1ccc(O)cc1)c1ccc2n1Cc1ccccc1N(C(=O)COc1ccc(Cl)cc1)C2", "melting point": "206 to 207"},
      {"compound": "Cn1ncc2c1-c1c(Sc3ccccn3)sc(C(N)=O)c1CC2", "melting point": "234 to 236"},
      {"compound": "CCCC#CCn1ncc(-c2ccc(S(C)(=O)=O)cc2)c(-c2ccc(F)cc2)c1=O", "melting point": "79 to 80"},
      {"compound": "COc1c2c(c(OC)c(OC)c1OC)CCC(=O)CC2", "melting point": "77 to 78"},
      {"compound": "O=C(CCc1ccc2ccccc2n1)NO", "melting point": "159 to 160"},
      {"compound": "COc1cc(N)c2ncccc2c1OCC(F)(F)F", "melting point": "91 to 94"},
      {"compound": "CCOC(=O)c1cc2c(cn1)[nH]c1ccc(N(C)C)cc12", "melting point": "220 to 221"},
      {"compound": "COc1cccc(Cc2cc(OC)ccc2O)c1", "melting point": "116 to 118"},
      {"compound": "COc1ccc2c(c1)C(N=Cc1cc(OC)c(OC)cc1[N+](=O)[O-])CCO2", "note": "(stereo unspecified)", "melting point": "143 to 145"},
      {"compound": "C1=C(c2ccccc2)CCN(Cc2cncc(-c3ccccc3)c2)C1", "melting point": "80 to 82"},
      {"compound": "O=C(Nc1cccc2c1C(=O)c1c-2n[nH]c1-c1ccc(C(=O)NC2CCNCC2)s1)NN1CCOCC1", "melting point": "224 to 226"}
    ]}
  ]
}
